Here are results for five molecules from patent publication US8084429B2, “Compounds and their analgesic applications” (priority 2002, dated 2011).

For this series, the system named is rat. The series is described as follows: observation of undesirable effects after intrathecal administration. In kind it is in vivo. On the procedure:
A silicone catheter was introduced into the intrathecal space of a rat in the cervical region of the spine, having an external diameter of 0.64 mm and an internal diameter of 0.3 mm. The 12 cm long catheter was prepared in the following way: at a distance of 7.5 cm from the end of the catheter, a flange was made around it with soft silicone glue. The remaining 4.5 cm stretch of the catheter was extended to the outside and connected to a 30G needle mounted on a 25 microliter Hamilton syringe. The implantation of the catheter was made under general anaesthesia. After shaving the coat from the shoulders and neck, the rat was placed in a stereotactic apparatus. The 1.5 cm long incision was made centrally, front to rear, along the axis of the spine. After reaching the muscles, they were prised apart and access to the basal membrane was prepared. The basal membrane was incised. The prepared catheter, filled with a sterile physiological saline solution, was inserted the through the incision in the membrane to a depth of 7.5 cm towards the rear, so that its end was found at the location of the L1. The muscle and skin were sutured. After recovery from general anaesthesia the rats were placed in separate cages. Biphaline was administered and measurements were made during the second day following the operation. All epidural injections were made at a constant volume of 10 microliters. Following the injection, the catheter was rinsed with 15 microliters of sterile physiological saline solution. Analgesis was measured in relation to a tail retraction test to which a thermal stimulus was applied in the form of a beam of light with a temperature of 55° C. The temperature and focus of the light was such that the time of reaction of the rat fit within the 2-3 second margin. The maximum time that the tail was agitated with the pain-stimulating light stimulus was set as 7 seconds, so as not to cause tail burns connected with a prolonged exposure of tissues to temperature. The pain-stimulating stimulus threshold was determined previous to administration of the compounds, as well as at the 5, 15, 30, 60 and 120 minutes following the administration. The degree of analgesis was expressed as a percent of the maximum possible effect (denoted as % MPE) according to the following equation: […]

Starred links: 1 amine or outer side, 2 acyl side, 3 side chain; linkers in the order of their positions; H or OH if unused. Positions of bridges follow the written chain, without caps; N, C: chain ends. Non-standard residues stand in square brackets, D forms with d. Residues, ends and D or L forms follow the SMILES beside them. Chains are numbered I, II in the order given. NHNH = N(N[*:2])[*:1]

As to `NC(=O)CC[C@@H](NC(=O)[C@@H](N)Cc1ccc(O)cc1)C(=O)NCC(=O)N[C@@H](Cc1ccccc1)C(=O)NNC(=O)[C@H](Cc1ccccc1)NC(=O)CNC(=O)[C@@H](CCC(N)=O)NC(=O)[C@@H](N)Cc1ccc(O)cc1` [(Tyr-D-Gln-Gly-Phe-NH—)2, (Tyr-D-Gln-Gly-Phe-NH-)2] (I: H-Y[dQ]GF / II: H-Y[dQ]GF; linker I:C-II:C via NHNH), the undesirable effects result (0.05 micrograms intrathecal) was “No undesirable effects were observed”.

Take `CC(C)C[C@@H](NC(=O)[C@@H](N)Cc1ccc(O)cc1)C(=O)NCC(=O)N[C@@H](Cc1c[nH]c2ccccc12)C(=O)NNC(=O)[C@H](Cc1c[nH]c2ccccc12)NC(=O)CNC(=O)[C@@H](CC(C)C)NC(=O)[C@@H](N)Cc1ccc(O)cc1` [(Tyr-D-Leu-Gly-Trp-NH—)2, (Tyr-D-Leu-Gly-Trp-NH-)2] (I: H-Y[dL]GW / II: H-Y[dL]GW; linker I:C-II:C via NHNH): the undesirable effects result (0.05 micrograms intrathecal) was “No undesirable effects were observed”.

Regarding `CSCC[C@@H](NC(=O)[C@@H](N)Cc1ccc(O)cc1)C(=O)NCC(=O)N[C@@H](Cc1ccccc1)C(=O)NNC(=O)[C@H](Cc1ccccc1)NC(=O)CNC(=O)[C@@H](CCSC)NC(=O)[C@@H](N)Cc1ccc(O)cc1` [(Tyr-D-Met-Gly-Phe-NH—)2, (Tyr-D-Met-Gly-Phe-NH-)2] (I: H-Y[dM]GF / II: H-Y[dM]GF; linker I:C-II:C via NHNH), the undesirable effects result (0.05 micrograms intrathecal) is listed as “No undesirable effects were observed”.

Take `C[C@H](O)[C@@H](NC(=O)[C@@H](N)Cc1ccc(O)cc1)C(=O)NCC(=O)N[C@@H](Cc1ccccc1)C(=O)NNC(=O)[C@H](Cc1ccccc1)NC(=O)CNC(=O)[C@H](NC(=O)[C@@H](N)Cc1ccc(O)cc1)[C@H](C)O` [(Tyr-D-Thr-Gly-Phe-NH—)2, (Tyr-D-Thr-Gly-Phe-NH-)2] (I: H-Y[dT]GF / II: H-Y[dT]GF; linker I:C-II:C via NHNH): for the setting “0.05 micrograms intrathecal”, the undesirable effects entry is given as “No undesirable effects were observed”.

Turning to `C[C@@H](NC(=O)[C@@H](N)Cc1ccc(O)cc1)C(=O)NCC(=O)N[C@@H](Cc1ccccc1)C(=O)NNC(=O)[C@H](Cc1ccccc1)NC(=O)CNC(=O)[C@@H](C)NC(=O)[C@@H](N)Cc1ccc(O)cc1` [biphaline, (Tyr-D-Ala-Gly-Phe-NH-)2], the undesirable effects result by setting is: (0.005 micrograms, then 0.003 micrograms every half hour for 8 hours, intrathecal) “No undesirable effects were observed”; (0.5 micrograms intrathecal) “No undesirable effects were observed”. Besides, the duration of stiffness (25 micrograms intrathecal) came to 4 h. Also, the muscle stiffness result (25 micrograms intrathecal, after three minutes following the injection) is “stiffness of limb and back muscles was observed”. In addition, the respiratory ability entry (25 micrograms intrathecal, during stiffness) is listed as “respiratory ability was maintained”. Besides, the respiratory depression result (extremely high dosages, as much as a thousand-fold the minimal effective analgesic dose) is on record as “did not cause respiratory depression”.
